According to paper PMC6272992, “Synthesis and Cytotoxic Effect of Some Novel 1,2-Dihydropyridin-3-carbonitrile and Nicotinonitrile Derivatives” (Molecules, 2015):
Values after ≈ are worked out from the molar mass of the structure shown.

Assays:
[1] = test system: MCF-7 (breast adenocarcinoma); assay: SRB cancer cell growth assay, MCF-7; format: cell-based, human; set-up: key to activity class MCF-7: highly active; b: moderately active; weakly active; conditions: for IC50: Homo sapiens, MCF7, MCF-7, 48 h exposure, SRB, read-out: IC50 (μg/mL) MCF-7
Procedure: (§1) The in vitro cytotoxic activity the newly synthesized compounds against human breast cell line (MCF7), non-small cell lung cancer NCI-H460, CNS cancer SF-268 and WI 38 (normal fibroblast cells) were evaluated using doxorubicin as the reference drug, according to the method reported by Skehan et al..
(§2) The newly synthesized compounds were evaluated in vitro against three human cancer cell lines; which are MCF-7 (breast adenocarcinoma), NCI-H460 (non-small cell lung cancer) and SF-268 (CNS cancer), and WI 38 (normal fibroblast cells) were used in this study. MCF-7 was obtained from the European Collection of Cell Cultures (ECACC, Salisbury, UK) but NCI-H460, SF-268 and WI 38 were kindly provided by the National Cancer Institute (NCI, Cairo, Egypt). They grow as monolayers routinely maintained in RPMI-1640 medium supplemented with 5% heat inactivated fetal bovine serum (FBS), 2 mM glutamine and antibiotics (penicillin 100 U/mL, streptomycin 100 µg/mL), at 37 °C in a humidified atmosphere containing 5% CO2. Exponentially growing cells were obtained by plating 1.5 × 10^5 cells/mL for MCF-7 and SF-268, and 0.75 × 10^4 cells/mL for NCI-H460 followed by 24 h of incubation. The effect of the vehicle solvent (DMSO) on the growth of these cell lines was evaluated in all experiments by exposing untreated control cells to the maximum concentration (0.5%) of DMSO used in each assay.
(§3) The effect of compounds on the in vitro growth of human tumor cell lines were evaluated according to the procedure adopted by the National Cancer Institute (NCI, […], USA) in the “In vitro Anticancer Drug Discovery Screen” that uses the protein-binding dye sulforhodamine B (SRB) to assess cell growth. In the assay protocol, all cells were incubated at 37 °C under humidified atmosphere containing 5% CO2. Briefly, exponentially cells growing in 96-well plates were then exposed for 48 h to five serial concentrations of each compound, starting from a maximum concentration of 150 μg/mL. Following this exposure period, adherent cells were fixed, washed and stained. The bound stain was solubilized and the absorbance was measured at 492 nm in a Power Wave XS plate reader (Bio-Tek Instruments Inc., Winston, NC, USA). For each test compound and cell line, a dose response curve was obtained and the inhibitory concentration of 50% (IC50), corresponding to the concentration of the compounds that inhibited 50% of the net cell growth was calculated as described elsewhere. Doxorubicin was used as a positive control and tested in the same manner.

[2] = test system: NCI-H460 (non-small cell lung cancer); assay: SRB cancer cell growth assay, NCI-H460; format: cell-based, human; set-up: key to activity class NCI-H460: highly active; b: moderately active; weakly active; conditions: for IC50: Homo sapiens, NCI-H460, 48 h exposure, SRB, read-out: IC50 (μg/mL) NCI-H460
Procedure: as §1, §2, §3

SF-268 (CNS cancer) = assay: SRB cancer cell growth assay, SF-268; format: cell-based, human; set-up: key to activity class SF-268: highly active; b: moderately active; weakly active; conditions: for IC50: Homo sapiens, SF-268, 48 h exposure, SRB, read-out: IC50 (μg/mL) SF-268
Procedure: as §1, §2, §3

[3] = test system: WI 38 (normal fibroblast cells); assay: SRB cell growth assay, normal cells WI 38; format: cell-based, human; conditions: 48 h exposure, non-cytotoxic = IC50 > 100 μg/mL
Procedure: as §1, §2, §3

| melting point [°C] | IC50 [1] [µg/mL] | IC50 [2] [µg/mL] | IC50 (SF-268 (CNS cancer)) [µg/mL] | Compound | activity class MCF-7 [1] | activity class NCI-H460 [2] | activity class SF-268 (SF-268 (CNS cancer)) | IC50 ([3]; Homo sapiens) [µg/mL] | IC50 (μg/mL) WI 38 [3] |
| --- | --- | --- | --- | --- | --- | --- | --- | --- | --- |
| 98 to 100 | 37.1 ± 7.34 (≈ 84.2 µM) | 16.4 ± 2.32 (≈ 37.2 µM) | 38.9 ± 2.63 (≈ 88.4 µM) | CC1CCCCN1c1nc(-c2ccc(Cl)cc2Cl)cc(-c2ccc(F)cc2)c1C#N (stereo not shown) [Compound 15a, 6-(2,4-Dichlorophenyl)-4-(4-fluorophenyl)-2-(2-methylpiperidin-1-yl)nicotinonitrile] | c | b | c | 30.6 ± 6.21 (≈ 69.5 µM) |  |
| 278 to 280 | 66 ± 8.25 (≈ 127 µM) | 45 ± 10.5 (≈ 86.2 µM) | 32.5 ± 6.04 (≈ 62.2 µM) | COc1ccc(C=NNc2nc(-c3ccc(Cl)cc3Cl)cc(-c3ccc(F)cc3)c2C#N)cc1OC [Compound 21d, 6-(2,4-Dichlorophenyl)-2-[2-(3,4-dimethoxybenzylidene)hydrazinyl]-4-(4-fluorophenyl) nicotinonitrile] | c | c | b |  | non-cytotoxic |
